Source: patent US10398592B2, “Diagnostic methods and apparatus” (ForSight Vision4, Inc., priority 2011, dated 2019)

Assays:
[1] = Diffusion model of release from the therapeutic device reservoir through the porous structure
From the text: The release rate of therapeutic agent 110 through a porous body, such as a sintered porous metal structure or a porous glass structure, may be described by diffusion of the therapeutic agent 110 within the porous structure 150 with the channel parameter, and with an effective diffusion coefficient equal to the diffusion coefficient of the therapeutic agent 110 in the liquid that fills the reservoir multiplied by the Porosity and a Channel Parameter of the porous body: Release Rate=(DP/F)A(cR−cV)/L, where: cR=Concentration in reservoir cV=Concentration outside of the reservoir or in the vitreous D=Diffusion coefficient of the therapeutic agent in the reservoir solution P=Porosity of porous structure F=Channel parameter that may correspond to a tortuosity parameter of channels of porous structure A=Area of porous structure L=Thickness (length) of porous structure Cumulative Release=1−cR/cR0=1−exp((−DPA/FLVR)t), where t=time, Vr=reservoir volume
A model can be derived to describe the release rate as a function of time by relating the change of concentration in the reservoir 140 to the release rate described above. This model assumes a solution of therapeutic agent 110 where the concentration in the reservoir 140 is uniform. In addition, the concentration in the receiving fluid or vitreous is considered negligible (cV=0). Solving the differential equation and rearrangement yields the following equations describing the concentration in the reservoir as a function of time, t, and volume of the reservoir, VR, for release of a therapeutic agent 110 from a solution in a reservoir though a porous structure 150. cR=cR0 exp((−DPA/FLVR)t) and Cumulative Release=1−cR/cR0
The molecular weight of the stabilizer can be provided in 1k Dalton increments from about 1k Dalton to about 200k Daltons and provide in a Table having about 200 rows similar to Table 2. The parameters of Table 2 determined such as the half-life in the device, the equivalent volume, the equivalent diameter, and % in the device at the half-life of the therapeutic agent 110. The table may comprise a row for each molecular weight in 1k Dalton increments, and the % of stabilizer in the device compared with the therapeutic agent 110. The table may include columns for two half-lives of the therapeutic agent, three half-lives of the therapeutic agent, four half-lives of the therapeutic agent, and the corresponding percentage of stabilizer remaining in the device.
FIG. 104 and Table 3 show concentrations of therapeutic agent, stabilizer and the ratio of stabilizer to therapeutic agent in accordance with an exemplary embodiment, for example. The concentrations and rations can be determined by a person of ordinary skill in the art based on the teachings described herein. […] Additional concentrations of the therapeutic agent can be used, for example greater amounts of therapeutic agent.

[2] = test system: analytes detected in pathological aqueous samples; experiment: Analytes in pathological aqueous samples pre-treatment and after intravitreal bevacizumab injection (Table 1); assay type: in vivo
From the text: The markers can be used to determine a course of treatment for the patient, and may be combined in many ways with the therapeutic agent as described herein. In many embodiments, the marker comprises a molecule that is a component of the eye which can diffuse through the porous structure into the reservoir structure. In many embodiments, the marker comprises a large molecule that can diffuse through the porous structure of the implanted device into the reservoir chamber. The therapeutic agent may comprise a large molecule or a small molecule that can diffuse through the porous structure, or combinations of large and small molecules. Work in relation to embodiments indicate that marker molecules having a lower molecular weight may accumulate in the implanted device more rapidly than larger molecular weight marker molecules, and that marker molecules having a molecular weight of no more than about 500 kDa can be used in many embodiments. In many embodiments the molecular weight can be smaller than 500 kDa, for example 100 kDa or less, so that the accumulation rate is increased. The molecular weight values of Table 1 can be combined in many ways to provide ranges of molecular weights of the measured marker. Alternatively or in combination, a plurality of markers of different molecular weight can be used to diagnose and treat the patient. Examples of markers and amounts similar to Table 1 can be used and are shown in Molecular Vision (Mol. Vis. 2010; 16: 2175-2184, Published online 2010 Oct. 27) available on the world wide web (at the address http://www.ncbi.nlm.nih.gov/pmc/articles/PMC2994336/table/t1/)
A ratio of pre-treatment mean concentration to post-treatment mean concentration is shown for the markers of Table 1. This ratio can be used to determine markers suitable to indicate efficacy of treatment and markers suitable for use as housekeeping genes. The markers having a ratio […] about 1.2, for example, can be suitable for use as housekeeping markers. Markers having a ratio above about 1.2 may be suitable for use as efficacy markers. In many embodiments, the one or more markers from the therapeutic device correspond to a pre/post ratio above of about 1.5, for example. Alternatively or in combination, the pre/post ratio can be less than 0.8, for example, and the marker risk may correspond to under-expression of protective factors, for example. The marker profile to diagnose the patient from a sample of the implanted device may comprise a plurality of up-regulation of pathogenic factor markers corresponding to a ratio above about 1.2 and a plurality of under-expression of protective factor markers corresponding to a ratio below about 0.8, for example.

[3] = aqueous samples after intravitreal bevacizumab injection
[4] = aqueous samples, intravitreal bevacizumab injection

Bevacizumab
Device Half-life relative to Ranibiz. [1]: 1.46 | Alpha-1 Antitrypsin Post-treatment mean [2, 3]: 0.0025 mg/mL | Alpha-Fetoprotein Post-treatment mean [2, 3]: 0.2790 ng/mL | Apolipoprotein A1 Post-treatment mean [2, 3]: 0.0004 mg/mL | Apolipoprotein CIII Post-treatment mean [2, 3]: 0.0259 µg/mL | Apolipoprotein H Post-treatment mean [2, 3]: 0.6400 µg/mL | Beta-2 Microglobulin Post-treatment mean [2, 3]: 0.3026 µg/mL | C Reactive Protein Post-treatment mean [2, 3]: 0.0477 µg/mL | CD40 Post-treatment mean [2, 3]: 0.0510 ng/mL | Cancer Antigen 19-9 Post-treatment mean [2, 3]: 0.2042 U/ml | Cancer Antigen 125 Post-treatment mean [2, 3]: 1.7225 U/ml | Complement 3 Post-treatment mean [2, 3]: 0.0014 mg/mL | Endothelin-1 Post-treatment mean [2, 3]: 5.2375 pg/mL | Eotaxin Post-treatment mean [2, 3]: 13.5813 pg/mL | Erythropoietin Post-treatment mean [2, 3]: 111.6125 pg/mL | FGF basic Post-treatment mean [2, 3]: 30.8900 pg/mL | Fibrinogen Post-treatment mean [2, 3]: 0.0005 mg/mL | G-CSF Post-treatment mean [2, 3]: 3.6748 pg/mL | Glutathione S-Transferase Post-treatment mean [2, 3]: 0.1544 ng/mL | Haptoglobin Post-treatment mean [2, 3]: 0.0004 mg/mL | ICAM-1 Post-treatment mean [2, 3]: 0.6971 ng/mL | IGF-1 Post-treatment mean [2, 3]: 1.4285 ng/mL | IL-6 Post-treatment mean [2, 3]: 15.2016 pg/mL | IL-7 Post-treatment mean [2, 3]: 12.3125 pg/mL | IL-8 Post-treatment mean [2, 3]: 14.9900 pg/mL | IgA Post-treatment mean [2, 3]: 0.0015 mg/mL | IgM Post-treatment mean [2, 3]: 0.0009 mg/mL | Leptin Post-treatment mean [2, 3]: 0.2131 ng/mL | MCP-1 Post-treatment mean [2, 3]: 438.3750 pg/mL | MIP-1alpha Post-treatment mean [2, 3]: 9.4175 pg/mL | MIP-1beta Post-treatment mean [2, 3]: 21.7988 pg/mL | MMP-3 Post-treatment mean [2, 3]: 0.6159 ng/mL | Prostate Specific Antigen, Free Post-treatment mean [2, 3]: 0.0092 ng/mL | Prostatic Acid Phosphatase Post-treatment mean [2, 3]: 0.0095 ng/mL | SGOT Post-treatment mean [2, 3]: 1.3488 µg/mL | SHBG Post-treatment mean [2, 3]: 0.2250 nmol/L | Serum Amyloid P Post-treatment mean [2, 3]: 0.0134 µg/mL | Stem Cell Factor Post-treatment mean [2, 3]: 19.4375 pg/mL | TIMP-1 Post-treatment mean [2, 3]: 22.3825 ng/mL | Thyroxine Binding Globulin Post-treatment mean [2, 3]: 0.3876 µg/mL | Tissue Factor Post-treatment mean [2, 3]: 0.3631 ng/mL | VEGF Post-treatment mean [2, 3]: 484.1250 pg/mL | Alpha-1 Antitrypsin Pre-treatment mean/Post-treatment mean [2, 4]: 0.9 | Alpha-Fetoprotein Pre-treatment mean/Post-treatment mean [2, 4]: 0.9 | Apolipoprotein A1 Pre-treatment mean/Post-treatment mean [2, 4]: 1.8 | Apolipoprotein CIII Pre-treatment mean/Post-treatment mean [2, 4]: 1.6 | Apolipoprotein H Pre-treatment mean/Post-treatment mean [2, 4]: 1.3 | Beta-2 Microglobulin Pre-treatment mean/Post-treatment mean [2, 4]: 1.4 | C Reactive Protein Pre-treatment mean/Post-treatment mean [2, 4]: 2.3 | CD40 Pre-treatment mean/Post-treatment mean [2, 4]: 1.3 | Cancer Antigen 19-9 Pre-treatment mean/Post-treatment mean [2, 4]: 1.4 | Cancer Antigen 125 Pre-treatment mean/Post-treatment mean [2, 4]: 1.0 | Complement 3 Pre-treatment mean/Post-treatment mean [2, 4]: 0.9 | Endothelin-1 Pre-treatment mean/Post-treatment mean [2, 4]: 1.0 | Eotaxin Pre-treatment mean/Post-treatment mean [2, 4]: 1.3 | Erythropoietin Pre-treatment mean/Post-treatment mean [2, 4]: 1.1 | FGF basic Pre-treatment mean/Post-treatment mean [2, 4]: 1.7 | Fibrinogen Pre-treatment mean/Post-treatment mean [2, 4]: 2.2 | G-CSF Pre-treatment mean/Post-treatment mean [2, 4]: 4.7 | Glutathione S-Transferase Pre-treatment mean/Post-treatment mean [2, 4]: 0.9 | Haptoglobin Pre-treatment mean/Post-treatment mean [2, 4]: 1.3 | ICAM-1 Pre-treatment mean/Post-treatment mean [2, 4]: 1.1 | IGF-1 Pre-treatment mean/Post-treatment mean [2, 4]: 1.0 | IL-6 Pre-treatment mean/Post-treatment mean [2, 4]: 7.9 | IL-7 Pre-treatment mean/Post-treatment mean [2, 4]: 0.9 | IL-8 Pre-treatment mean/Post-treatment mean [2, 4]: 1.5 | IgA Pre-treatment mean/Post-treatment mean [2, 4]: 0.9 | IgM Pre-treatment mean/Post-treatment mean [2, 4]: 1.4 | Leptin Pre-treatment mean/Post-treatment mean [2, 4]: 1.8 | MCP-1 Pre-treatment mean/Post-treatment mean [2, 4]: 1.5 | MIP-1alpha Pre-treatment mean/Post-treatment mean [2, 4]: 1.1 | MIP-1beta Pre-treatment mean/Post-treatment mean [2, 4]: 1.1 | MMP-3 Pre-treatment mean/Post-treatment mean [2, 4]: 1.0 | Prostate Specific Antigen, Free Pre-treatment mean/Post-treatment mean [2, 4]: 1.8 | Prostatic Acid Phosphatase Pre-treatment mean/Post-treatment mean [2, 4]: 2.7 | SGOT Pre-treatment mean/Post-treatment mean [2, 4]: 1.3 | SHBG Pre-treatment mean/Post-treatment mean [2, 4]: 2.3 | Serum Amyloid P Pre-treatment mean/Post-treatment mean [2, 4]: 2.1 | Stem Cell Factor Pre-treatment mean/Post-treatment mean [2, 4]: 1.0 | TIMP-1 Pre-treatment mean/Post-treatment mean [2, 4]: 1.4 | Thyroid Stimulating Hormone Pre-treatment mean/Post-treatment mean [2, 4]: 1.6 | Thyroxine Binding Globulin Pre-treatment mean/Post-treatment mean [2, 4]: 1.6 | Tissue Factor Pre-treatment mean/Post-treatment mean [2, 4]: 1.0 | VEGF Pre-treatment mean/Post-treatment mean [2, 4]: 1.4
